Results as given in patent US20230107216A1, “PANTETHEINE DERIVATIVES AND USES THEREOF” (Comet Therapeutics, Inc., priority 2018, published 2023).
Read-outs that look alike come from different tables or passages of the source.

Columns and labels:
[1] = tested on: Propionic Acidemia (PA) primary fibroblasts GM00371; assay: Mitochondrial respiration, XFe96 Extracellular Flux Analyzer (OCR/ECAR), PA fibroblasts GM00371; format: cell-based; details: Homo sapiens, Fibroblast, read-out: Increase in Maximal Respiratory Capacity AUC
[2] = tested on: Leigh Syndrome (LS) primary fibroblasts GM03672; assay: NADP+/NADPH (NADP/NADPH-Glo), Leigh fibroblasts GM03672; format: cell-based; details: Homo sapiens, Fibroblast, 24h, read-out: Increase in Total NADP+ + NADPH
Description: Primary adherent fibroblasts were cultured in minimum essential medium (MEM) (Gibco, 25030081) supplemented with 2 mM L-Glutamine (Gibco, 25030081), 15% fetal bovine serum (FBS) (Gibco, 26400044) and 1% penicillin/streptomycin (Gibco, 5140122) at 37° C. and 5% CO2. Cells were collected for either passaging or experiment at ˜70-80% confluence. Cells were obtained by trypsinization and seeded in cell culture microplates either white plate (Thermo Fisher Scientific, 152028) for luminescent measurement or black plate (Thermo Fisher Scientific, 165305) for fluorescent based read out for different assays listed below. Cells were obtained by trypsinization and […] were seeded and allowed to adhere for 16-18 hours to have confluency around 70-80% in the cell well with culture media. After 24 hours prior to measurements (37° C., 5% CO2) media was changed to Dulbecco's Modified Eagle Medium (DMEM, Agilent Seahorse cat #103575-100) with the appropriate supplements as stated below.
Primary fibroblasts assayed were Propionic Acidemia (PA) (GM03590 Coriell Institute for Medical Research, Tsi 6337 Trans-Hit Bio), Methylmalonic Acidemia (MMA) (Tsi 5224 Trans-Hit Bio), Subnormal activation of pyruvate dehydrogenase complex (PDH) (GM01503 Coriell Institute for Medical Research), Very long-chain acyl-CoA dehydrogenase (VLCAD) (GM17475), Leigh Syndrome (LS) (GM03672, GM13411 Coriell Institute for Medical Research), Pyruvate Carboxylase Deficiency (PC) (GM00444 Coriell Institute for Medical Research). 10 μM of Compounds were added for 2 hours in PA, MMA lines and for 24h for the other fibroblast lines.
Assay was performed according to manufacturer instructions (NADP+/NADPH-Glo Assay Promega, G9082). Assay required a plate for total measurement of NADP+/NADPH and a plate for individual measurement of NADP+ or NADPH. For every assay a 12-point standard curve is prepared ranging from 400 nM to 0.625 nM. Media is removed and replaced with 50 μl of PBS for both assays.
For individual NADP+/NADPH measurements, 50 μl of 1% DTAB (Sigma, D5047) (cell lysis reagent) in 0.2N NaOH was added to the plates and 100 μl of lysate was split into two plates with 50 μl each from which ratio of NADP/NADPH can be calculated. 25 μl of 0.4N HCl were added to the NADP+ plates and both NADP+ and NADPH plates were heated at 60° C. for 15 minutes. The acid and heat treatment destroyed NADPH allowing individual NADP+ measurements while heating in basic conditions destroys NADP+ allowing individual NADPH measurement. After 15 minutes plates were allowed to come to room temperature and Trizma base (Sigma, T1699) was added to the NADP+ plates to neutralize the acid and HCl Trizma hydrochloride (Sigma, T2694) was added to the NADPH plates. The NADNADPH glo reagent was prepared by adding 125 μl of NAD cycling substrate, 125 μl of reductase, 125 μl of reductase substrate, 125 μl NAD cycling enzyme to a total of the 25 ml of NAD GLO reagent. 1:1 ratio of total volume of reagent was added to the individual NADP+, NADPH measurements (total 100 μl) and 50 μl were added for the total NAD/NADPH measurements. Luminescence was measured for 30-60 minutes within the linear range.
A total dead cell count was performed as described in Example 817 and only alive cells were used for analysis.

[3] = tested on: Venular Endothelial cells (HUVEC) (4H system); assay: BioMAP 4H system (IL-4 and histamine); format: cell-based, human; details: 1 uM, procedure of Example 826
[4] = tested on: Peripheral blood mononuclear cells co-cultured with venular endothelial cells (HUVEC) (LPS system); assay: BioMAP LPS system; format: cell-based, human; details: procedure of Example 827
[5] = tested on: Bronchial epithelial cells co-cultured with dermal fibroblast (BF4T system); assay: BioMAP BF4T system (TNFα and IL-4); format: cell-based, human; details: Homo sapiens, 24 h; 10 uM; procedure of Example 830; read-out: % increase in VCAM-1
[6] = tested on: Dermal fibroblasts (HDF3CGF system); assay: BioMAP HDF3CGF system (IL-1β, TNFα, IFNγ, EGF, bFGF, PDGF-BB); format: cell-based, human; details: 10 uM; procedure of Example 833
[7] = tested on: Peripheral blood mononuclear cells co-cultured with B-cells (BT system); details: 1 uM; procedure of Example 829
[8] = tested on: Peripheral blood mononuclear cells co-cultured with B-cells (BT system); assay: cells; details: Homo sapiens, 72 h, read-out: % increase in sIL-6
[9] = tested on: Methylmalonic Acidemia (MMA) primary fibroblasts GM01673; assay: Mitochondrial respiration, XFe96 Extracellular Flux Analyzer (OCR/ECAR), MMA fibroblasts GM01673; format: cell-based; details: Homo sapiens, Fibroblast, assay condition A (10 mM glucose, 2 mM L-glutamine, 1 mM pyruvate, 10% FBS), 50 μM, read-out: Increase in Maximal Respiratory Capacity AUC
Description: The effect of the compounds of the present disclosure on mitochondrial respiration was measured with a XFe96 Extracellular Flux Analyzer (Seahorse Bioscience, Agilent Technologies) and Oxygen consumption Rate (OCR) and Extracellular acidification rate (ECAR) determined.
Cell culture and treatments. Primary adherent fibroblasts were cultured in minimum essential medium (MEM) (Gibco, 25030081) supplemented with 2 mM L-Glutamine (Gibco, 25030081), 15% fetal bovine serum (FBS) (Gibco, 26400044) and 1% penicillin/streptomycin (Gibco, 5140122) at 37° C. and 5% CO2. Cells were collected for either passaging or experiment at ˜70-80% confluence. Cells were obtained by trypsinization and seeded at 20000 cells/well in cell culture microplates (Seahorse Bioscience, 101085-004) and allowed to adhere for 16 hours in culture media.
By profiling different primary cells and/or optimizing their culture media or environmental components one can select cell lines and/or conditions that are appropriate for the biological or disease model. In the present example, 24 hours prior to OCR and ECAR profiling, media was changed to Dulbecco's Modified Eagle Medium (DMEM, Agilent Seahorse 103575-100) with the appropriate supplements for the different primary cells (10 mM glucose, 2 mM L-glutamine, 1 mM pyruvate, 10% FBS; 1 mM glucose, 2 mM L-glutamine, 1 mM pyruvate, 10% FBS; 10 mM glucose, 10% FBS; 5 mM glucose 10% FBS; 1 mM glucose 10% FBS). Cells used in this example were: Propionic Acidemia (PA) (GM00371, GM03590 Coriell Institute for Medical Research, Tsi 6337, Tsi 4626, Tsi 3618 Trans-Hit Bio), Methylmalonic Acidemia (MMA) (GM01673, Coriell Institute for Medical Research, Tsi 5224 Trans-Hit Bio), Branched chain ketoacid dehydrogenase kinase (BCKDK) (GM00612, GM00649 Coriell Institute for Medical Research), Subnormal activation of pyruvate dehydrogenase complex (PDH) (GM01503 Coriell Institute for Medical Research), Very long-chain acyl-CoA dehydrogenase (VLCAD) (GM17475), Leigh Syndrome (LS) (GM03672, GM13411 Coriell Institute for Medical Research), Pyruvate Carboxylase Deficiency (PC) (GM00444 Coriell Institute for Medical Research), Glutaric Acidemia-I (GA) (GM10653), Friedreich's Ataxia (FXN) (GM04078 Coriell Institute for Medical Research, Huntington's disease (HD) (GM21756 Coriell Institute for Medical Research), Ornithine Transcarbamylase Deficiency (OTC) (GM12756 Coriell Institute for Medical Research), Kearns-Sayre Syndrome (KSS) (GM06225 Coriell Institute for Medical Research).
One hour before the assay, the cells were washed with freshly prepared unbuffered serum free-Seahorse XF Assay medium (Seahorse Bioscience, North America, USA, 103575-100) with the same supplements as for the previous 24 hour incubation.
After baseline measurements of OCR, cells were challenged with compounds of the present disclosure at different concentrations (10 to 50 μM) or vehicle (DMSO, 0.1%) and a post-compound baseline was recorded. OCR was measured after sequentially adding to each well 1 μg/ml oligomycin (inhibitor of ATP synthase Sigma-Aldrich, 753531), then maximal OCR was determined with carbonyl cyanide 4-(trifluoromethoxy) phenylhydrazone (FCCP, Sigma-Aldrich, C2920), (uncoupler of oxidative phosphorylation) and 0.5 μM of rotenone (Sigma-Aldrich, R8875) plus antimycin A (Sigma-Aldrich, A8674) (inhibitors of mitochondrial complex I and III) for determination of rotenone-antimycin insensitive respiration together with Hoechst for nuclear staining in situ when normalized to cell counts. After the analysis and nuclear staining, the XFp microplate was transferred to the Cytation 5, and the nuclear images were captured, the individual nuclei were identified and counted by BioTek Gen5 software. Data were expressed as pmol of O2 per minute and normalized by nuclear staining and baselined to pre-compound addition.
Assay conditions were as stated below.
Assay specifics on assay conditions are indicated below when readouts were normalized to cell counts. […]

[10] = tested on: primary fibroblasts GM00649, GM06225, GM00612, GM00444, GM03672; assay: MMP, ROS and ATP multiplex (ArrayScan); format: cell-based; details: Homo sapiens, Fibroblast; Leigh GM03672; procedure Example 838; 50 μM (table line r25); read-out: Decreased ROS by at least 10%
Description: Cell culture and treatments. Primary adherent fibroblasts were cultured in minimum essential medium (MEM) (Gibco, 25030081) supplemented with 2 mM L-Glutamine (Gibco, 25030081), 15% fetal bovine serum (FBS) (Gibco, 26400044) and 1% penicillin/streptomycin (Gibco, 5140122) at 37° C. and 5% CO2. Cells were collected for either passaging or experiment at ˜70-80% confluence. Cells were obtained by trypsinization and seeded at 10000 cells/well in cell culture microplates (Seahorse Bioscience, 101085-004) and allowed to adhere for 16 hours in culture media. After media was refreshed with DMEM (Agilent Seahorse 103575-100) supplemented with 1 mM glucose and 10% FBS (Gibco, 26400044). At the end of the incubation period, the cells were loaded with the relevant dye/antibody for each cell health marker. The assay provided simultaneous measurement of cell health parameters including cell count, ROS formation (DHE), mitochondrial membrane potential (MitoTracker®) and cellular ATP content (CellTiter-Glo®, Promega). The plates were then scanned using an automated fluorescent cellular imager, ArrayScan® (Thermo Scientific Cellomics). Assay conditions were optimized by one skilled in the art.
Primary cells used in this example were obtained from Coriell Institute for Medical Research and consisted of GM00649, MSUD (Maple Syrup Urine Disease) Tyle IA; GM06225, Kearns-Sayre Syndrome; GM00612, MSUD (Maple Syrup Urine Disease) Tyle II GM00444, Pyruvate Carboxylase Deficiency and GM03672, Leigh Syndrome.

[11] = tested on: primary fibroblasts (healthy controls and PA, MMA, BCKDK, PDH, VLCAD, LS, PC, GA, VLCFA, KSS, FXN, HD); assay: Measurement of ROS (H2DCFDA) in primary fibroblasts; format: cell-based, human; details: Homo sapiens, Fibroblast; HD GM21756; procedure Example 812; Assay Condition C; read-out: Decreased ROS by at least 30%
Procedure, shortened: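 Patient and healthy-control primary fibroblasts switched to supplemented DMEM 24 h before assay, then treated with compound (10 μM) plus H2DCFDA (22 μM) for 2 h (PA, MMA lines) or 24 h (other lines). Kinetic fluorescence at 492/527 nm over 60 min; only live cells analysed.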

## CC(C)(CO)[C@@H](O)C(=O)NCCC(=O)NCCSC(CC(=O)O)C(=O)O (stereo partly drawn) [Compound 46, 2-[(2-[3-[(2R)-2,4-dihydroxy-3,3-dimethylbutanamido]propanamido]ethyl)sulfanyl]butanedioic acid]
[1]; assay condition C (10 mM glucose, 10% FBS), 50 μM
  activation at 50 µM: ≥ 10%
[2]; Leigh GM03672 P8, assay condition B (1 mM glucose, 2 mM L-glutamine, 1 mM pyruvate, 10% FBS)
  activation at 10 µM: ≥ 10%
[3]
  % increase in E-Selectin: ≥10%
[3]; Homo sapiens, HUVEC, 24 h, read-out: % decrease in E-Selectin
  inhibition at 1 µM: ≥ 10%
[4]; 1 uM
  % increase in sPGE2: ≥10%
[4]; Homo sapiens, HUVEC, 24 h, 10 uM, read-out: % increase in sTNFα
  activation at 10 µM: ≥ 10%
[5]
  activation at 10 µM: ≥ 10%
[6]
  % decrease in Collagen I: ≥10%
[7]
  % decrease in B-cell proliferation: ≥20%
  % decrease in sIL-2: ≥20%
  % decrease in sTNFα: ≥20%
[8]
  activation at 10 µM: ≥ 10%

## CCOC(=O)C(=O)SCCNC(=O)CCNC(=O)[C@H](O)C(C)(C)COP(=O)(O)O [Compound 61]
[9]
  activation at 50 µM: ≥ 10%
[10]
  inhibition at 50 µM: ≥ 10%

## CCC(=O)SCCNC(=O)CCNC(=O)[C@H](O)C(C)(C)CO [Compound 398, (2R)-2,4-dihydroxy-3,3-dimethyl-N-(2-[[2-(propanoylsulfanyl)ethyl]carbamoyl]ethyl)butanamide]
[1]; assay condition D (1 mM glucose, 10% FBS), 10 μM
  activation at 10 µM: ≥ 10%
[11]
  inhibition at 10 µM: ≥ 30%
[2]; Leigh GM03672 P9, assay condition A (10 mM glucose, 2 mM L-glutamine, 1 mM pyruvate, 10% FBS)
  activation at 10 µM: ≥ 10%
